Article PMC10447463, “Data-mining unveils structure–property–activity correlation of viral infectivity enhancing self-assembling peptides” (Nature Communications, 2023)
Where two headings read alike, the source gives them in different places.

Assays:
[1] = Turbidity, derived count rate of scattered light; type: physicochemical; settings: for Count Rate: derived count rate of scattered light (turbidity); for Log10 Count Rate: turbidity, derived count rate of scattered light, data of Figure 2D
[2] = type: physicochemical; settings: for ThT Cat. / ThT-Fluorescence (categorical): ThT-active if fluorescence at least twice the control
Outline: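 Fibrils (1 mg/mL solution) were mixed with 50 µM ThT in PBS for 15 min at RT, and fluorescence was read at λex 440/λem 488 nm against a PBS blank, as a triplicate mean ± SD. Zeta potential came from electrophoretic mobility (Smoluchowski) after 1 d aggregation at 1 mg/mL in PBS pH 7.4, diluted into 1 mM KCl.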

[3] = type: physicochemical; design: key to Fibril / Fibril Formation / TEM 2cat / Fibril: 1 = fibrils present; 0 non-fibrillar structures; settings: for Fibril / Fibril Formation: 1 mg/mL, uranyl acetate stain, qualitative
[4] = Fig S10 panel D, fibril category by TEM
[5] = TEM, 1 = fibrils present, 0 = non-fibrillar
[6] = TEM, 1 = fibrils present, 0 = non-fibrillar structures
[7] = category: fibrils present or non-fibrillar
[8] = FigS12 panel A, fibril category by TEM
[9] = ThT fluorescence category, 1 if Rel. ThT >2

Row | Sequence | Count Rate [1] | Log10 Count Rate [1] | Tht category (> 2 to blank = +) ([2]; Fig S10 panel D) | ThT Cat. ([2]; Fig S10 panel E) | ThT Cat, ([2]; ThT category, 1 if Rel. ThT >2) | ThT Cat. ([2]; ThT category, 1 if Rel. ThT >2) | ThT Cat. / ThT-Fluorescence (categorical) [2] | TEM 2cat [3, 4] | Fibril ([3]; Fig S10 panel E) | Fibril / Fibril Formation ([3]; TEM) | Fibril [3, 5] | Fibril [3, 6] | TEM 2cat [3, 7] | Tht category (> 2 to blank = +) ([2]; FigS12 panel A) | ThT Cat, ([2]; FigS12 panel B) | TEM 2cat [3, 8] | Fibril ([3]; FigS12 panel B, TEM) | ThT Cat. [2, 9] | Rel. ThT ([2]; n-fold ThT fluorescence vs control (PBS, 10% DMSO), 4 µL 1 mg/mL fibrils + 20 µL 50 µM ThT, 15 min RT, ex 440 / em 488 nm, triplicate)
1 | EIEIQINMWQ | 1264 | 3.102 | 1 (ThT. Cat is 1, if Rel. ThT >2) | 1 (ThT. Cat is 1, if Rel. ThT >2) | 1 (ThT. Cat is 1, if Rel. ThT >2) | 1 (ThT. Cat is 1, if Rel. ThT >2) | 1 (ThT. Cat is 1, if Rel. ThT >2) | 0 | 0 | 0 | 0 | 0 | 0 |  |  |  |  |  | 
2 | EIKIQINM | 2816 | 3.45 | 1 (ThT. Cat is 1, if Rel. ThT >2) | 1 (ThT. Cat is 1, if Rel. ThT >2) | 1 (ThT. Cat is 1, if Rel. ThT >2) | 1 (ThT. Cat is 1, if Rel. ThT >2) | 1 (ThT. Cat is 1, if Rel. ThT >2) | 1 | 1 | 1 | 1 | 1 |  | 1 (ThT. Cat is 1, if Rel. ThT >2) | 1 (ThT. Cat is 1, if Rel. ThT >2) | 1 | 1 |  | 
3 | HHHHKAKAKAKAWWWW | 658.9 | 2.8188 | 1 (ThT. Cat is 1, if Rel. ThT >2) |  | 1 (ThT. Cat is 1, if Rel. ThT >2) | 1 (ThT. Cat is 1, if Rel. ThT >2) | 1 (ThT. Cat is 1, if Rel. ThT >2) | 0 |  | 0 | 0 | 0 |  | 1 (ThT. Cat is 1, if Rel. ThT >2) | 1 (ThT. Cat is 1, if Rel. ThT >2) | 0 | 0 |  | 
4 | HHHHKAKAKAKAYYYY | 240.9 | 2.382 | 0 (ThT-inactive (N-Fold <2)) |  | 0 (ThT-inactive (N-Fold <2)) |  | 0 (ThT-inactive (N-Fold <2)) | 0 |  | 0 | 0 | 0 |  | 0 (ThT-inactive (N-Fold <2)) | 0 (ThT-inactive (N-Fold <2)) | 0 | 0 | 0 (ThT-inactive (N-Fold <2)) | 
5 | HHHHKIKIKIKIWWWW | 23756.66667 | 4.376 | 1 (ThT. Cat is 1, if Rel. ThT >2) | 1 (ThT. Cat is 1, if Rel. ThT >2) | 1 (ThT. Cat is 1, if Rel. ThT >2) |  | 1 (ThT. Cat is 1, if Rel. ThT >2) | 0 | 0 | 0 | 0 | 0 | 0 |  |  |  |  | 1 (ThT. Cat is 1, if Rel. ThT >2) | 
6 | HHHHKIKIKIKIYYYY | 12792.53333 | 4.107 | 1 (ThT. Cat is 1, if Rel. ThT >2) |  | 1 (ThT. Cat is 1, if Rel. ThT >2) |  | 1 (ThT. Cat is 1, if Rel. ThT >2) | 0 |  | 0 | 0 | 0 | 0 |  |  |  |  | 1 (ThT. Cat is 1, if Rel. ThT >2) | 
7 | HHHHKIKIQINMYYYY | 5659 | 3.753 | 1 (ThT. Cat is 1, if Rel. ThT >2) | 1 (ThT. Cat is 1, if Rel. ThT >2) | 1 (ThT. Cat is 1, if Rel. ThT >2) |  | 1 (ThT. Cat is 1, if Rel. ThT >2) | 1 | 1 | 1 | 1 | 1 | 1 |  |  |  |  | 1 (ThT. Cat is 1, if Rel. ThT >2) | 
8 | IKVAVKIKIQINM | 4848 | 3.686 | 0 (ThT-inactive (N-Fold <2)) |  | 0 (ThT-inactive (N-Fold <2)) | 0 (ThT-inactive (N-Fold <2)) | 0 (ThT-inactive (N-Fold <2)) | 1 |  | 1 | 1 | 1 | 1 |  |  |  |  |  | 
9 | ILKNLSRSRKIKIQIC | 2392 | 3.379 | 1 (ThT. Cat is 1, if Rel. ThT >2) |  | 1 (ThT. Cat is 1, if Rel. ThT >2) |  | 1 (ThT. Cat is 1, if Rel. ThT >2) | 1 |  | 1 | 1 | 1 | 1 |  |  |  |  | 1 (ThT. Cat is 1, if Rel. ThT >2) | 
10 | ILKNLSRSRKIKIQINMWQ | 306.5 | 2.486 | 1 (ThT. Cat is 1, if Rel. ThT >2) |  | 1 (ThT. Cat is 1, if Rel. ThT >2) | 1 (ThT. Cat is 1, if Rel. ThT >2) | 1 (ThT. Cat is 1, if Rel. ThT >2) | 1 |  | 1 | 1 | 1 | 1 |  |  |  |  |  | 
11 | KAKAKAQA | 76.93 | 1.886 | 0 (ThT-inactive (N-Fold <2)) |  | 0 (ThT-inactive (N-Fold <2)) |  | 0 (ThT-inactive (N-Fold <2)) | 0 |  | 0 | 0 | 0 |  | 0 (ThT-inactive (N-Fold <2)) | 0 (ThT-inactive (N-Fold <2)) | 0 | 0 | 0 (ThT-inactive (N-Fold <2)) | 
12 | KAKAQANM | 42.5 | 1.628 | 0 (ThT-inactive (N-Fold <2)) |  | 0 (ThT-inactive (N-Fold <2)) |  | 0 (ThT-inactive (N-Fold <2)) | 0 |  | 0 | 0 | 0 |  | 0 (ThT-inactive (N-Fold <2)) | 0 (ThT-inactive (N-Fold <2)) | 0 | 0 | 0 (ThT-inactive (N-Fold <2)) | 1.1
